According to patent US20150218173A1, “SUBSTITUTED INDAZOL-PYRROLOPYRIMIDINES USEFUL IN THE TREATMENT OF HYPERFOLIFERATIVE DISORDERS” (BAYER PHARMA AKTIENGESELLSCHAFT, priority 2012, published 2015):

The compounds below were run against T1, human full-length MKNK1 (Homo sapiens, UniProt Q9BUB5, T385D) (assay: MKNK1 kinase high ATP assay (TR-FRET)). Conditions: high ATP (2 mM final), 15 min preincubation with enzyme.
T1 construct: GST (N); purchased Carna Biosciences 02-145; host or cells: insect cells (baculovirus expression system)
Assay type: biochemical
Procedure: MKNK1-inhibitory activity at high ATP of compounds of the present invention after their preincubation with MKNK1 was quantified employing the TR-FRET-based MKNK1 high ATP assay as described in the following paragraphs.
A recombinant fusion protein of Glutathione-S-Transferase (GST, N-terminally) and human full-length MKNK1 (amino acids 1-424 and T344D of accession number BAA 19885.1), expressed in insect cells using baculovirus expression system and purified via glutathione sepharose affinity chromatography, was purchased from Carna Biosciences (product no 02-145) and used as enzyme. As substrate for the kinase reaction the biotinylated peptide biotin-Ahx-IKKRKLTRRKSLKG (C-terminus in amide form) was used, which can be purchased e.g. from the company Biosyntan (Berlin-Buch, Germany).
For the assay 50 nL of a 100 fold concentrated solution of the test compound in DMSO was pipetted into a black low volume 384 well microtiter plate (Greiner Bio-One, Frickenhausen, Germany), 2 μL of a solution of MKNK1 in aqueous assay buffer [50 mM HEPES pH 7.5, 5 mM MgCl2, 1.0 mM dithiothreitol, 0.005% (v/v) Nonidet-P40 (Sigma)] was added and the mixture was incubated for 15 min at 22° C. to allow pre-binding of the test compounds to the enzyme before the start of the kinase reaction. Then the kinase reaction was started by the addition of 3 μL of a solution of adenosine-tri-phosphate (ATP, 3.3 mM=>final conc. in the 5 μL assay volume is 2 mM) and substrate (0.1 μM=>final conc. in the 5 μL assay volume is 0.06 μM) in assay buffer and the resulting mixture was incubated for a reaction time of 30 min at 22° C. The concentration of MKNK1 was adjusted depending of the activity of the enzyme lot and was chosen appropriate to have the assay in the linear range, typical concentrations were in the range of 0.003 μg/mL. The reaction was stopped by the addition of 5 μL of a solution of TR-FRET detection reagents (5 nM streptavidine-XL665 [Cisbio Bioassays, Codolet, France] and 1 nM anti-ribosomal protein S6 (pSer236)-antibody from Invitrogen [#44921G] and 1 nM LANCE EU-W1024 labeled ProteinG [Perkin-Elmer, product no. AD0071]) in an aqueous EDTA-solution (100 mM EDTA, 0.1% (w/v) bovine serum albumin in 50 mM HEPES pH 7.5).
The resulting mixture was incubated for 1 h at 22° C. to allow the formation of complex between the phosphorylated biotinylated peptide and the detection reagents. Subsequently the amount of phosphorylated substrate was evaluated by measurement of the resonance energy transfer from the Eu-chelate to the streptavidine-XL. Therefore, the fluorescence emissions at 620 nm and 665 nm after excitation at 350 nm were measured in a TR-FRET reader, e.g. a Rubystar (BMG Labtechnologies, Offenburg, Germany) or a Viewlux (Perkin-Elmer). The ratio of the emissions at 665 nm and at […] was taken as the measure for the amount of phosphorylated substrate. The data were normalised (enzyme reaction without inhibitor=0% inhibition, all other assay components but no enzyme=100% inhibition).

T1 sequence (Q9BUB5 1-424 isoform Q9BUB5-2 T344D): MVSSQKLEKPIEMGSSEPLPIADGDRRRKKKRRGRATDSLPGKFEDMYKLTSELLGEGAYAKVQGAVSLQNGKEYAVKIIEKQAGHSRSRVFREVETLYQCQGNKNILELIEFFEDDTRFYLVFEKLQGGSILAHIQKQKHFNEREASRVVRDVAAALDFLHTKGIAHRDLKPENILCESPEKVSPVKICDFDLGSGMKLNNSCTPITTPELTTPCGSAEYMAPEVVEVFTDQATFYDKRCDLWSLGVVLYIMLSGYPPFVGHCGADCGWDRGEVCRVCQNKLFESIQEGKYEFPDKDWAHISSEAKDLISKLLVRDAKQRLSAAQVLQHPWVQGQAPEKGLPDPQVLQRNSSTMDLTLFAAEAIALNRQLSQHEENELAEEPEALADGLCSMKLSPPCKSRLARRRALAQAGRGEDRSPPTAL

SMILES | IC50 [µM]
CCCCNC(=O)c1cc2c(Nc3ccc4[nH]ncc4c3)ncnc2[nH]1 [Example 22, N-Butyl-4-(1H-indazol-5-ylamino)-7H-pyrrolo[2,3-d]pyrimidine-6-carboxamide] | 0.005
C=C(C)c1cc2c(Nc3ccc4[nH]ncc4c3)ncnc2[nH]1 [Example 8, N-(1H-indazol-5-yl)-6-(prop-1-en-2-yl)-7H-pyrrolo[2,3-d]pyrimidin-4-amine] | 0.004
O=C(c1[nH]c2ncnc(Nc3ccc4[nH]ncc4c3)c2c1Br)N1CCCCC1 [Example 45, [5-Bromo-4-(1H-indazol-5-ylamino)-7H-pyrrolo[2,3-d]pyrimidin-6-yl](piperidin-1-yl)methanone] | 0.045
C1=C(c2c[nH]c3ncnc(Nc4ccc5[nH]ncc5c4)c23)CCOC1 [Example 17, 5-(3,6-Dihydro-2H-pyran-4-yl)-N-(1H-indazol-5-yl)-7H-pyrrolo[2,3-d]pyrimidin-4-amine] | 0.012
C1=C(c2cc3c(Nc4ccc5[nH]ncc5c4)ncnc3[nH]2)CCOC1 [Example 16, 6-(3,6-Dihydro-2H-pyran-4-yl)-N-(1H-indazol-5-yl)-7H-pyrrolo[2,3-d]pyrimidin-4-amine] | 0.002
CCOC(=O)c1[nH]c2ncnc(Nc3ccc4[nH]ncc4c3)c2c1Br [Example 30, Ethyl 5-bromo-4-(1H-indazol-5-ylamino)-7H-pyrrolo[2,3-d]pyrimidine-6-carboxylate] | 0.003
CCOC(=O)c1cc2c(Nc3ccc4[nH]ncc4c3)ncnc2[nH]1 [Example 4, Ethyl 4-(1H-indazol-5-ylamino)-7H-pyrrolo[2,3-d]pyrimidine-6-carboxylate] | 0.025
OCc1c[nH]c2ncnc(Nc3ccc4[nH]ncc4c3)c12 [Example 41, [4-(1H-indazol-5-ylamino)-7H-pyrrolo[2,3-d]pyrimidin-5-yl]methanol] | 0.037
Cc1c(C(=O)O)[nH]c2ncnc(Nc3ccc4[nH]ncc4c3)c12 [Example 32, 4-(1H-Indazol-5-ylamino)-5-methyl-7H-pyrrolo[2,3-d]pyrimidine-6-carboxylic acid] | 0.018
c1cc(-c2c[nH]c3ncnc(Nc4ccc5[nH]ncc5c4)c23)ccn1 [Example 14, N-(1H-Indazol-5-yl)-5-(pyridin-4-yl)-7H-pyrrolo[2,3-d]pyrimidin-4-amine] | 0.006
c1nc(Nc2ccc3[nH]ncc3c2)c2cc(C3CCOCC3)[nH]c2n1 [Example 24, N-(1H-Indazol-5-yl)-6-(tetrahydro-2H-pyran-4-yl)-7H-pyrrolo[2,3-d]pyrimidin-4-amine] | 0.029
C[C@@H]1COCCN1C(=O)c1[nH]c2ncnc(Nc3ccc4[nH]ncc4c3)c2c1Br [Example 42, [5-Bromo-4-(1H-indazol-5-ylamino)-7H-pyrrolo[2,3-d]pyrimidin-6-yl][(3R)-3-methylmorpholin-4-yl]methanone] | 0.058
Clc1cc2c(Nc3ccc4[nH]ncc4c3)ncnc2[nH]1 [Example 28, 6-Chloro-N-(1H-indazol-5-yl)-7H-pyrrolo[2,3-d]pyrimidin-4-amine] | 0.032
O=C(O)c1[nH]c2ncnc(Nc3ccc4[nH]ncc4c3)c2c1Br [Example 31, 5-Bromo-4-(1H-indazol-5-ylamino)-7H-pyrrolo[2,3-d]pyrimidine-6-carboxylic acid] | 0.005
O=S(=O)(c1ccc(Cl)cc1)c1cc2c(Nc3ccc4[nH]ncc4c3)ncnc2[nH]1 [Example 38, 6-[(4-Chlorophenyl)sulfonyl]-N-(1H-indazol-5-yl)-7H-pyrrolo[2,3-d]pyrimidin-4-amine] | 0.001
CN(C)CCCNC(=O)c1cc2c(Nc3ccc4[nH]ncc4c3)ncnc2[nH]1 [Example 27, N-[3-(Dimethylamino)propyl]-4-(1H-indazol-5-ylamino)-7H-pyrrolo[2,3-d]pyrimidine-6-carboxamide] | 0.005
CS(=O)(=O)c1cc2c(Nc3ccc4[nH]ncc4c3)ncnc2[nH]1 [Example 5, N-(1H-Indazol-5-yl)-6-(methylsulfonyl)-7H-pyrrolo[2,3-d]pyrimidin-4-amine] | 0.011
